Read-outs that look alike come from different tables or passages of the source.
What was measured:
NEP = NEP (Homo sapiens, UniProt P08473); experiment: Wet-lab test of inhibition of NEP; type: biochemical; set-up: inhibition rate / quenching efficiency: concentration or dose not given beside the values
IDE = biological target: T1, IDE (Homo sapiens, UniProt P14735); experiment: Wet-lab test of inhibition of IDE; type: biochemical; details: for inhibition rate / quenching efficiency / IC50: binding to IDE; for IC50: computed value
T1 sequence (P14735 1-1019): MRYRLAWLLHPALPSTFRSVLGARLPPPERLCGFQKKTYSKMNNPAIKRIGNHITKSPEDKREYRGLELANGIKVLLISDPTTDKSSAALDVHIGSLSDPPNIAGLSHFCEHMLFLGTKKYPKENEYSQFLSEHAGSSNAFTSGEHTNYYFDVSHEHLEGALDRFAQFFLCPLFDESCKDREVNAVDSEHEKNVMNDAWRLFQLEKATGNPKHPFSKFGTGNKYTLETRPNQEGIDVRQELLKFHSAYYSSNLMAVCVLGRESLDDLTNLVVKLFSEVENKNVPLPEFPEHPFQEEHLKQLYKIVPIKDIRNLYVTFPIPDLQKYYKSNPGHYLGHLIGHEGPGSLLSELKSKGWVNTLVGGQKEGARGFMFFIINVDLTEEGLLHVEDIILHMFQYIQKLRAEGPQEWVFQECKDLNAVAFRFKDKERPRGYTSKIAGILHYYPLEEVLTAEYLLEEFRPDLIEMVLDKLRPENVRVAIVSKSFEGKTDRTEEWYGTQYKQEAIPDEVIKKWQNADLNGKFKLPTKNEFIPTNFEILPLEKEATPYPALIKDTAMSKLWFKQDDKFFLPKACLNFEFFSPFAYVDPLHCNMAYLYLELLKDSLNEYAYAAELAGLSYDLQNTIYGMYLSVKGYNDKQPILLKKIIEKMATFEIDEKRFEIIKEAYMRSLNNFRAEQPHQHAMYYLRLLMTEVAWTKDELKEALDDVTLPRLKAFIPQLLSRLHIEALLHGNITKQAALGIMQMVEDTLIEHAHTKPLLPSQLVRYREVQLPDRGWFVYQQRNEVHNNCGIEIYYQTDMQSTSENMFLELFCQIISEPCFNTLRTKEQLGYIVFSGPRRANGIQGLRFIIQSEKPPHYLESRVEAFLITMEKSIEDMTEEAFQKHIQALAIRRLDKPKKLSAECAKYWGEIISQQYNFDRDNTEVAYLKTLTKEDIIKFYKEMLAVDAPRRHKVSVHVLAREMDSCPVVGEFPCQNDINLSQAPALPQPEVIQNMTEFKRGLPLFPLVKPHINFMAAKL

[1] = cited from earlier work
[2] = conclusion from both amiloride analogs

Sequence of NEP (P08473 whole entry): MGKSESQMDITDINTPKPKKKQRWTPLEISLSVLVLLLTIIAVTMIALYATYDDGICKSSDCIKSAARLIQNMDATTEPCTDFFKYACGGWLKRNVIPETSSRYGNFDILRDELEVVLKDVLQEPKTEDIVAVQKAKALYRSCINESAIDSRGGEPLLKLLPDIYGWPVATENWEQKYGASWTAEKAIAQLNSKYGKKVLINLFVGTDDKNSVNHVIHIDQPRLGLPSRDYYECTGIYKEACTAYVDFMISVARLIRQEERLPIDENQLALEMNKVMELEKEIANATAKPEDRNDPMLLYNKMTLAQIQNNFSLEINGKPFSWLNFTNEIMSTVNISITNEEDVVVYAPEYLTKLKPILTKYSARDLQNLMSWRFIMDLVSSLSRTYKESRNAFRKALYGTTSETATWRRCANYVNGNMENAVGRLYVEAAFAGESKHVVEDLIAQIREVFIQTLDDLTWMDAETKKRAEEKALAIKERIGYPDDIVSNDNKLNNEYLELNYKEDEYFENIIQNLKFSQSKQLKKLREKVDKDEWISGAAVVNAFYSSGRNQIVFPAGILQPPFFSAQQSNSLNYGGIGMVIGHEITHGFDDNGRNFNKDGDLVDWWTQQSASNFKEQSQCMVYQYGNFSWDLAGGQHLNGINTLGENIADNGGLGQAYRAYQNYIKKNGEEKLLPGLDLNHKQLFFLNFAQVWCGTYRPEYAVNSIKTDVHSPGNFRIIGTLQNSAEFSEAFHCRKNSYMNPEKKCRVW

O=C(O)CNC(=O)C(CS)Cc1ccccc1 (racemic) [DL-Thiophan]
inhibition rate (NEP; binding to NEP): 102.01%

CN(C)c1nc(N)c(C(=O)N=C(N)N)nc1Cl.Cl [5-(N,N-Dimethyl) amiloride hydrochloride]
inhibition rate (IDE): 93.57% | quenching efficiency (IDE): 54.77% | IC50 (IDE): 178 µM | inhibition rate (NEP; binding to NEP): 80.96% | quenching efficiency (NEP; binding to NEP): 54.77% | IC50 (NEP; binding to NEP, computed value): 829 µM

N=C(N)NC(=O)c1nc(Cl)c(N)nc1N [AMR, Amiloride]
inhibition of IDE (in words) (IDE; [2]): strongly inhibits IDE | inhibition of NEP (in words) (NEP; [2]): weakly inhibits NEP

Cl.N=C(N)NC(=O)c1nc(Cl)c(N)nc1N.O.O [Amiloride HCl dihydrate]
inhibition rate (IDE): 95.02% | quenching efficiency (IDE): -6.64% | IC50 (IDE): 214 µM | inhibition rate (NEP; binding to NEP): 65.21% | quenching efficiency (NEP; binding to NEP): -6.64%

COc1ccc2c3c1O[C@H]1C[C@@H](O)C=C[C@@]31CCN(C)C2 [GNT, galantamine]
crosses the blood-brain barrier (BBB) [1]: cross the blood-brain barrier

C/C=C1\[C@H]2C=C(C)C[C@]1(N)c1ccc(=O)[nH]c1C2 [HUP, Huperzine A]
crosses the blood-brain barrier (BBB) ([1]; in vivo): cross the blood-brain barrier

OCCN1C[C@H](O)[C@@H](O)[C@H](O)[C@H]1CO [MIG, Miglitol]
crosses the BBB ([1]; ref not given): cannot cross BBB

NC(=O)C1=CN([C@@H]2O[C@H](COP(=O)(O)OP(=O)(O)OC[C@H]3O[C@@H](n4cnc5c(N)ncnc54)[C@H](O)[C@@H]3O)[C@@H](O)[C@H]2O)C=CC1 [NAI, NADH]
crosses the BBB [1]: cross the BBB

Nc1c2c(nc3ccccc13)CCCC2 [THA, tacrine]
crosses the blood-brain barrier (BBB) ([1]; in vivo): cross the blood-brain barrier

Cc1c(C)c2c(c(C)c1O)CC[C@@](C)(CCC[C@H](C)CCC[C@H](C)CCCC(C)C)O2 [VIV, Vitamin E]
crosses the BBB [1]: cross the BBB

From article PMC4674063, “Uncovering the Molecular Mechanism of Actions between Pharmaceuticals and Proteins on the AD Network” (PLoS ONE, 2015)
